Consider five molecules from ChEMBL document CHEMBL4420076, “Amylin and calcitonin receptor agonist” (2017).

Numbered stars: 1 amine (or outer) side, 2 acyl side, 3 side chain; on linkers, the order of the positions; unused ones are H or OH. Peptide text beside a SMILES is read from it. * marks the point of attachment. C20 diacid = O=C(O)CCCCCCCCCCCCCCCCCCC(=O)*; C18 diacid = O=C(O)CCCCCCCCCCCCCCCCC(=O)*; γGlu = O=C(O)[C@H](CCC(=O)[*:2])N[*:1]

Series [1] is described as follows: Solubility in 100 mM bistrispropane buffer at pH 7.0 incubated for 18 hrs by UPLC analysis. It counts as physicochemical.
For series [2], the target named is T1, Calcitonin receptor (Homo sapiens, UniProt P30988).
T1 sequence (P30988 whole entry): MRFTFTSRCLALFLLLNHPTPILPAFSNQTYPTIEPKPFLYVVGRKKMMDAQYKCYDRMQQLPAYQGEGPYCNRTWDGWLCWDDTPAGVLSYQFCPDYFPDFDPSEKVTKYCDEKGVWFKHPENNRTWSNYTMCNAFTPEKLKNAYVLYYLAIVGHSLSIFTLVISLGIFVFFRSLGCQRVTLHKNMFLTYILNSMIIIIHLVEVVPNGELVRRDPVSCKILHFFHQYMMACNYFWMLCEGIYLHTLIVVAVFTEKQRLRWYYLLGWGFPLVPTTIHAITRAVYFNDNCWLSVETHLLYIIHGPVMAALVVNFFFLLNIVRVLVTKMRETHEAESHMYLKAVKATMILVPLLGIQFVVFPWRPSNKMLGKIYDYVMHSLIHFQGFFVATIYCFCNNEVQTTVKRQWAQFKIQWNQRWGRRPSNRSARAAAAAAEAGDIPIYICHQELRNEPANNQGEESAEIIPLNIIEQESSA
Description: Agonist activity at human calcitonin receptor expressed in BHK570 cells assessed as increase in intracellular cAMP concentration incubated for 3 hrs in presence of 10% FBS by CRE luciferase reporter gene assay. The series is classed as functional, cell-based.

Series [3] can be described thus: Solubility in 100 mM bistrispropane buffer at pH 6.0 incubated for 18 hrs by UPLC analysis. It counts as physicochemical.
Series [4] is described as follows: Solubility in 100 mM bistrispropane buffer at pH 8.0 incubated for 18 hrs by UPLC analysis. The series is classed as physicochemical.
Series [5] is described as follows: Solubility in 100 mM glycylglycine buffer at pH 3.0 incubated for 18 hrs by UPLC analysis. The series is classed as physicochemical.
The nature of series [6]: Solubility in 100 mM bistrispropane buffer at pH 6.5 incubated for 18 hrs by UPLC analysis. The series is classed as physicochemical.
The nature of series [7]: Solubility in 100 mM bistrispropane buffer at pH 7.5 incubated for 18 hrs by UPLC analysis. It counts as physicochemical.
Series [8] deals with T2, Amylin receptor AMY3; CALCR/RAMP3 (Homo sapiens, UniProt O60896+P30988).
T2 sequence (P30988 whole entry): T1 sequence (P30988 whole entry)
T2 sequence (O60896 whole entry): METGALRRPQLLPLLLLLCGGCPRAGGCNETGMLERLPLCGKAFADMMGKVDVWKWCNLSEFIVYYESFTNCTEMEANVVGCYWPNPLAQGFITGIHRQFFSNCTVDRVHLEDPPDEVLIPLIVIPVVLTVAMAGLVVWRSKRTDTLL
The experiment in a line: Displacement of [125I]-labeled rat amylin from human amylin receptor expressed in BHK tkts13 whole cells co-expressing RAMP3 incubated for 60 mins by scintillation proximity assay. The series is classed as cell-based. Background: In a radioligand displacement assay an active substance lowers the binding of a labelled ligand.

In series [9] the target is T2, Amylin receptor AMY3; CALCR/RAMP3. Description: Agonist activity at human amylin receptor expressed in BHK570 cells co-expressing RAMP3 assessed as increase in intracellular cAMP concentration incubated for 3 hrs in presence of 10% FBS by CRE luciferase reporter gene assay. It counts as functional, cell-based. (In general: Reporter assays use an easily measured gene product as a stand-in for the process of interest.)

Series [10] addresses T1, Calcitonin receptor. The experiment in a line: Agonist activity at human calcitonin receptor expressed in BHK570 cells assessed as increase in intracellular cAMP concentration incubated for 3 hrs in absence of albumin by CRE luciferase reporter gene assay. It counts as functional, cell-based.
In series [11] the target is T2, Amylin receptor AMY3; CALCR/RAMP3. The experiment in a line: Agonist activity at human amylin receptor expressed in BHK570 cells co-expressing RAMP3 assessed as increase in intracellular cAMP concentration incubated for 3 hrs in absence of albumin by CRE luciferase reporter gene assay. The series is classed as functional, cell-based.
Series [12] is described as follows: Solubility in 100 mM glycylglycine buffer at pH 5.0 incubated for 18 hrs by UPLC analysis. The series is classed as physicochemical.
Series [13] in a line: Solubility in 100 mM glycylglycine buffer at pH 4.0 incubated for 18 hrs by UPLC analysis. The series is classed as physicochemical.

The solubility is the concentration that dissolves in the medium under given conditions. A lower solubility goes with a poorly soluble substance. A word on the EC50: it is the concentration giving half of the maximal effect. What is called IC50 is the midpoint of a concentration-inhibition curve.

For the molecule `CC(C)C[C@H](NC(=O)[C@H](CCC(=O)O)NC(=O)[C@H](Cc1cnc[nH]1)NC(=O)[C@H](CC(C)C)NC(=O)[C@H](CCC(=O)O)NC(=O)[C@H](C)NC(=O)[C@H](CO)NC(=O)[C@H](CC(C)C)NC(=O)[C@H](CCCNC(=N)N)NC(=O)CNC(=O)[C@@H](NC(=O)[C@@H](NC(=O)[C@H](C)NC(=O)[C@@H](NC(=O)[C@H](CO)NC(=O)[C@@H](NC(=O)[C@H](CCC(=O)O)NC(=O)[C@H](CO)NC(=O)[C@H](C)NC(=O)CC[C@H](NC(=O)CCCCCCCCCCCCCCCCC(=O)O)C(=O)O)C(C)C)[C@@H](C)O)C(C)C)C(C)C)C(=O)N[C@@H](C)C(=O)N[C@H](C(=O)N[C@@H](CC(C)C)C(=O)N1CCC[C@H]1C(=O)N[C@@H](CCCNC(=N)N)C(=O)N[C@H](C(=O)N[C@@H](CCC(=O)O)C(=O)N[C@H](C(=O)NCC(=O)N[C@@H](CO)C(=O)NCC(=O)N[C@@H](CO)C(=O)N1CCC[C@H]1C(N)=O)[C@@H](C)O)[C@@H](C)O)[C@@H](C)O` ({C18 diacid-γGlu}-ASEVSTAVVGRLSAELHELATLPRTETGSGSP-NH2), the solubility at 18 h in series [1], in [3], in series [4], in series [5], in series [6] and in [7] was no less than 200 µM in each case. For the same molecule, the EC50 on Calcitonin receptor [2] was 0.011 nM; in series [9], 0.038 nM; on Calcitonin receptor [10] it was 0.008 nM. In addition, in series [8], the IC50 was 1.17 nM.
As to `CC(C)C[C@H](NC(=O)[C@H](C)NC(=O)[C@H](C)NC(=O)[C@@H](NC(=O)[C@H](CO)NC(=O)[C@H](CC(C)C)NC(=O)[C@H](CCC(=O)O)NC(=O)[C@H](CO)NC(=O)[C@H](C)NC(=O)CC[C@H](NC(=O)CCCCCCCCCCCCCCCCC(=O)O)C(=O)O)[C@@H](C)O)C(=O)NCC(=O)N[C@@H](CCCNC(=N)N)C(=O)N[C@@H](CC(C)C)C(=O)N[C@@H](CO)C(=O)N[C@@H](C)C(=O)N[C@@H](CCC(=O)O)C(=O)N[C@@H](CC(C)C)C(=O)N[C@@H](Cc1cnc[nH]1)C(=O)N[C@@H](CCC(=O)O)C(=O)N[C@@H](CC(C)C)C(=O)N[C@@H](C)C(=O)N[C@H](C(=O)N[C@@H](CC(C)C)C(=O)N1CCC[C@H]1C(=O)N[C@@H](CCCNC(=N)N)C(=O)N[C@H](C(=O)N[C@@H](CCC(=O)O)C(=O)N[C@H](C(=O)NCC(=O)N[C@@H](CO)C(=O)NCC(=O)N1CCC[C@H]1C(=O)N1CCC[C@H]1C(N)=O)[C@@H](C)O)[C@@H](C)O)[C@@H](C)O` ({C18 diacid-γGlu}-ASELSTAALGRLSAELHELATLPRTETGSGPP-NH2), the solubility at 18 h in series [1], in series [3], in series [4], in series [5], in series [6] and in [7] was no less than 200 µM each time. Moreover, the solubility at 18 h in series [12] and in series [13] was no less than 200 µM throughout. In addition, the EC50 in series [11] was 0.08 nM; in [9] it was 0.413 nM; on Calcitonin receptor [10], 0.019 nM. Further, the concentration for half-maximal inhibition (IC50) in [8] was 22 nM.
In the case of `CC(C)C[C@H](NC(=O)[C@H](C)NC(=O)[C@H](C)NC(=O)[C@@H](NC(=O)[C@H](CO)NC(=O)[C@H](CC(C)C)NC(=O)[C@H](CCC(=O)O)NC(=O)[C@H](CO)NC(=O)[C@H](C)NC(=O)CC[C@H](NC(=O)CCCCCCCCCCCCCCCCC(=O)O)C(=O)O)[C@@H](C)O)C(=O)NCC(=O)N[C@@H](CCCNC(=N)N)C(=O)N[C@@H](CC(C)C)C(=O)N[C@@H](CO)C(=O)N[C@@H](C)C(=O)N[C@@H](CCC(=O)O)C(=O)N[C@@H](CC(C)C)C(=O)N[C@@H](Cc1cnc[nH]1)C(=O)N[C@@H](CCC(=O)O)C(=O)N[C@@H](CC(C)C)C(=O)N[C@@H](C)C(=O)N[C@H](C(=O)N[C@@H](CC(C)C)C(=O)N1CCC[C@H]1C(=O)N[C@@H](CCCNC(=N)N)C(=O)N[C@H](C(=O)N[C@@H](CCC(=O)O)C(=O)N[C@H](C(=O)NCC(=O)N[C@@H](CO)C(=O)N[C@@H](CCC(=O)O)C(=O)N[C@@H](CO)C(=O)N1CCC[C@H]1C(N)=O)[C@@H](C)O)[C@@H](C)O)[C@@H](C)O` ({C18 diacid-γGlu}-ASELSTAALGRLSAELHELATLPRTETGSESP-NH2), the solubility at 18 h in series [1], in series [3], in series [4], in series [5], in series [6] and in series [7] was no less than 200 µM throughout. Further, the solubility at 18 h in series [12] and in series [13] was no less than 200 µM in each case. Further, the results for the EC50 (in series [11]; in [9]; at Calcitonin receptor [10]) were 0.009 nM, 0.026 nM and 0.004 nM, respectively. Further, in [8], the IC50 was 0.83 nM.
On to `CC(C)C[C@H](NC(=O)CC[C@H](NC(=O)CCCCCCCCCCCCCCCCCCC(=O)O)C(=O)O)C(=O)N[C@@H](CO)C(=O)N[C@@H](CCC(N)=O)C(=O)N[C@@H](CC(C)C)C(=O)N[C@@H](CO)C(=O)N[C@H](C(=O)N[C@@H](CC(C)C)C(=O)N[C@H](C(=O)N[C@@H](CC(C)C)C(=O)NCC(=O)N[C@@H](CCCNC(=N)N)C(=O)N[C@@H](CC(C)C)C(=O)N[C@@H](CO)C(=O)N[C@@H](CCC(N)=O)C(=O)N[C@@H](CCCNC(=N)N)C(=O)N[C@@H](CC(C)C)C(=O)N[C@@H](Cc1cnc[nH]1)C(=O)N[C@@H](CCCNC(=N)N)C(=O)N[C@@H](CC(C)C)C(=O)N[C@@H](CCC(N)=O)C(=O)N[C@H](C(=O)N[C@@H](Cc1ccc(O)cc1)C(=O)N1CCC[C@H]1C(=O)N[C@@H](CCCNC(=N)N)C(=O)N[C@H](C(=O)N[C@@H](CCC(N)=O)C(=O)N[C@H](C(=O)NCC(=O)N[C@@H](CO)C(=O)N[C@@H](CCC(N)=O)C(=O)N[C@H](C(=O)N[C@@H](Cc1ccc(O)cc1)C(N)=O)[C@@H](C)O)[C@@H](C)O)[C@@H](C)O)[C@@H](C)O)C(C)C)[C@@H](C)O` ({C20 diacid-γGlu}-LSQLSTLVLGRLSQRLHRLQTYPRTQTGSQTY-NH2), for which the EC50 is 0.05 nM on Calcitonin receptor [2], 0.01 nM in series [11], 0.044 nM in [9] and 0.012 nM at Calcitonin receptor [10]. Also, the IC50 in series [8] is 10.7 nM.
Turning to `CC(C)C[C@H](NC(=O)[C@H](C)NC(=O)[C@H](C)NC(=O)[C@@H](NC(=O)[C@H](CO)NC(=O)[C@H](CC(C)C)NC(=O)[C@H](CCC(=O)O)NC(=O)[C@H](CO)NC(=O)[C@H](C)NC(=O)CC[C@H](NC(=O)CCCCCCCCCCCCCCCCCCC(=O)O)C(=O)O)[C@@H](C)O)C(=O)NCC(=O)N[C@@H](CCCNC(=N)N)C(=O)N[C@@H](CC(C)C)C(=O)N[C@@H](CO)C(=O)N[C@@H](C)C(=O)N[C@@H](CCC(=O)O)C(=O)N[C@@H](CC(C)C)C(=O)N[C@@H](Cc1cnc[nH]1)C(=O)N[C@@H](CCC(=O)O)C(=O)N[C@@H](CC(C)C)C(=O)N[C@@H](CO)C(=O)N[C@H](C(=O)N[C@@H](Cc1ccc(O)cc1)C(=O)N1CCC[C@H]1C(=O)N[C@@H](CCCNC(=N)N)C(=O)N[C@H](C(=O)N[C@@H](CCC(=O)O)C(=O)N[C@H](C(=O)NCC(=O)N[C@@H](CO)C(=O)NCC(=O)N[C@@H](CO)C(=O)N[C@@H](Cc1ccc(O)cc1)C(N)=O)[C@@H](C)O)[C@@H](C)O)[C@@H](C)O` ({C20 diacid-γGlu}-ASELSTAALGRLSAELHELSTYPRTETGSGSY-NH2), the solubility at 18 h in series [1], in series [3], in series [4], in series [5], in series [6] and in [7] was no less than 200 µM in each case. In [13], the solubility at 18 h is no less than 200 µM. For the same molecule, the EC50 is 0.05 nM in series [11], 0.064 nM in [9] and 0.034 nM on Calcitonin receptor [10]. In addition, the IC50 in series [8] is 0.186 nM.
